Key:
acute DSS-induced IBD = assay: Acute prophylactic model of DSS-induced IBD; assay type: in vivo, male C57Bl/6 mice
Description: Acute and chronic models of dextran sodium sulfate (DSS)-induced IBD in mice were used to explore efficacy of GSNORi against this disease. Acute and chronic DSS-induced IBD are widely used and well characterized models that induce pathological changes in the colon similar to those observed in the human disease. In these models and in human disease, epithelial cells within the crypts of the colon are disrupted, leading to dysfunction of the epithelial barrier and the ensuing tissue inflammation, edema, and ulceration. GSNORi therapy may benefit IBD by restoring s-nitrosoglutathione (GSNO) levels, and thus prevent or reverse the epithelial barrier dysfunction. Experimental IBD was induced by administration of DSS in the drinking water of male C57Bl/6 mice (N=8 to 10 mice per group) for 6 consecutive days. GSNORi was dosed orally at doses of 0.1 to 10 mg/kg/day for 10 days starting two days prior to and continuing two days post DSS exposure. Two days post DSS exposure, the effect of GSNORi was assessed in a blinded fashion via endoscopy and histopathology using a five point scale ranging from a score=0 (normal tissue) through a score=4 (ulcerative tissue damage and marked pathological changes). Levels of circulating cytokines involved in inflammatory pathways were also assessed. The effect of GSNORi was compared to vehicle treated controls. The corticosteroid, prednisolone, was used as the positive control in this study and was administered daily at 3 mg/kg/day via oral dosing. Naïve mice (N=5) were also assessed as a normal tissue control.

[1] = system: cigarette smoke-induced COPD (BALF cells and chemokines); assay: Acute (4 day) cigarette smoke exposure COPD model; assay type: in vivo, female C57Bl/6 mice; conditions: oral 10 mg/kg/day for 7 days
Experimental: (§1) The efficacy of GSNOR inhibitors was assessed in a mouse model of chronic obstructive pulmonary disease (COPD) induced by short duration (4 days or 11 days) of exposure to cigarette smoke. Infiltration of inflammatory cells into the bronchoalveolar lavage fluid (BALF) and BALF levels of chemokines involved in inflammation and tissue turnover/repair were measured to assess the influences of GSNOR inhibitors on some of the early events associated with the initiation and progression of COPD.
Efficacy of GSNOR inhibitors against COPD was explored using acute (4 day) and subchronic (11 day) models of cigarette smoke-induced COPD in mice. […] In animal models, changes in lung pathology are only evident after extended (several months) duration of exposure to cigarette smoke, thus making chronic models prohibitive as effective screening tools. […]
Female C57Bl/6 mice (N=8 per group) were exposed to cigarette smoke using a whole body exposure chamber. […] The effects of GSNOR inhibitors were assessed by quantitating the numbers of total cells, leukocytes, and leukocytes differentials in the BALF via light microscopy and the levels of BALF chemokines via ELISA at approximately 24 h after the last smoke exposure. […]

[2] = system: cigarette smoke-induced COPD (BALF cells); assay: Subchronic (11 day) cigarette smoke exposure COPD model; assay type: in vivo, female C57Bl/6 mice; conditions: for effects compared to positive control roflumilast: roflumilast 5 mg/kg/day
Experimental: as §1
Efficacy of GSNOR inhibitors against COPD was explored using acute (4 day) and subchronic (11 day) models of cigarette smoke-induced COPD in mice. […] In animal models, changes in lung pathology are only evident after extended (several months) duration of exposure to cigarette smoke, thus making chronic models prohibitive as effective screening tools. More recently, models exploring inflammatory responses after short duration (2 weeks or less) of smoke exposure in mice have been utilized as tools for screening efficacy and mechanisms of action of novel therapeutics against COPD. The key roles of inflammation in the initiation and progression of COPD, make these short duration models relevant for initial tests of efficacy of novel therapeutics.
Female C57Bl/6 mice (N=10 per group) were exposed to cigarette smoke generated from Marlboro 100 cigarettes without filters. Exposure times were 25 min. on study day 1, 35 min. on study day 2, and 45 min. on study days 3 to 11. GSNOR inhibitors were administered one hour prior to smoke exposure on each day. GSNOR inhibitors were dosed orally at 1 to 10 mg/kg/day for 11 days. The effects of GSNOR inhibitors were assessed by quantitating the number of total cells, and leukocytes differentials in the BALF via light microscopy at 24 h after the last exposure. The effect of GSNOR inhibitors were compared to vehicle treated controls and expressed as percent inhibition of the cigarette smoke induced increases in BALF cell numbers. Roflumilast was used as the positive control for the study and was dosed at 5 mg/kg/day. A group of naïve mice (N=10) was exposed to air and dosed with vehicle as a negative control for the study.

chronic DSS-induced IBD = assay: Chronic treatment model of DSS-induced IBD; assay type: in vivo, male C57Bl/6 mice; conditions: oral 10 mg/kg/day for up to 14 consecutive days, treatment regimen; p<0.05
Description: Acute and chronic models of dextran sodium sulfate (DSS)-induced IBD in mice were used to explore efficacy of GSNORi against this disease. Acute and chronic DSS-induced IBD are widely used and well characterized models that induce pathological changes in the colon similar to those observed in the human disease. In these models and in human disease, epithelial cells within the crypts of the colon are disrupted, leading to dysfunction of the epithelial barrier and the ensuing tissue inflammation, edema, and ulceration. GSNORi therapy may benefit IBD by restoring s-nitrosoglutathione (GSNO) levels, and thus prevent or reverse the epithelial barrier dysfunction.
Experimental IBD was induced by administration of DSS in the drinking water of male C57Bl/6 mice (N=10 to 12 mice per group) for 6 consecutive days. GSNORi was dosed orally at doses of 10 mg/kg/day for 14 days starting one day after cessation of DSS exposure. Efficacy of GSNORi was assessed in a blinded fashion via endoscopy after 7 days and 14 days of GSNORi dosing and via histopathology after 14 days of GSNORi dosing using a five point scale ranging from a score=0 (normal tissue) through a score=4 (ulcerative tissue damage and marked pathological changes). Levels of circulating cytokines involved in inflammatory pathways were also assessed. […] Naïve mice (N=5) were also assessed as a normal tissue control.

[3] = oral 10 mg/kg/day for 10 consecutive days, prophylactic regimen

`O=C(O)c1ccc(-c2ccc3cc(O)ccc3n2)cc1` [Compound 3, 4-(6-hydroxyquinolin-2-yl)benzoic acid] was tested, and the circulating inflammatory cytokines (acute DSS-induced IBD; oral 0.1, 1, or 10 mg/kg/day for 10 days, prophylactic regimen) was “restored circulating inflammatory cytokines towards levels observed in untreated naïve mice”, the “effects compared to positive control prednisolone” value (acute DSS-induced IBD; prednisolone 3 mg/kg/day oral) was “comparable to or greater than those observed for prednisolone” and the BALF chemokines [1] was “restored BALF chemokines towards levels observed in naïve mice”. For the same compound, the “effects compared to positive control roflumilast” value [1] was “comparable to or greater than those observed for roflumilast”.
In the case of `O=C(O)c1ccc(-c2ccc3cc(O)ccc3n2)c(Cl)c1` [Compound 8, 3-chloro-4-(6-hydroxyquinolin-2-yl)benzoic acid], the “dose response of effect” value ([2]; oral 1, 5, or 10 mg/kg/day) is reported as “no dose response”, the “effects compared to positive control roflumilast” value [2] is reported as “comparable to those of roflumilast” and the “decrease of percent of mice with severe colon injury scores via endoscopy, of vehicle control” value (acute DSS-induced IBD; [3]) is reported as 44%. The “decrease of percent of mice with severe colon injury scores via histopathology, of vehicle control” value (acute DSS-induced IBD; [3]) was 26%.
In the case of `O=C(O)c1ccc(-c2ccc3cc(O)ccc3n2)c(F)c1` [Compound 13, 3-fluoro-4-(6-hydroxyquinolin-2-yl)benzoic acid], the “effects compared to positive control roflumilast” value [2] is reported as “comparable to those of roflumilast”, the “decrease of percent of mice with severe colon injury scores via endoscopy, of vehicle control” value (chronic DSS-induced IBD) is reported as 52% and the “decrease of percent of mice with severe colon injury scores via histopathology, of vehicle control” value (chronic DSS-induced IBD) is reported as 53%.
In the case of `Cc1cc(C(=O)O)ccc1-c1ccc2cc(O)ccc2n1` [Compound 27, 4-(6-hydroxyquinolin-2-yl)-3-methylbenzoic acid], the “effects compared to positive control roflumilast” value [2] is reported as “comparable to those of roflumilast”.
